Data published in patent publication US10251845B2, “Fatty acid cysteamine conjugates and their use as activators of autophagy” (Catabasis Pharmaceuticals, Inc., priority 2014, dated 2019).
Read-outs that look alike come from different tables or passages of the source.

What was measured:
[1] = test system: Tissue Inhibitor of Metalloproteinase 2 (TIMP-2); assay: ELISA of TIMP-2 in conditioned media of lung fibroblasts; format: cell-based, human; details: NLF, LL29 or LL97A cells, 25 μM, in the presence of TGFβ
From the text: Normal human lung fibroblasts (ScienCell Research Laboratory 3420), lung fibroblasts from idiopathic pulmonary fibrosis (IPF) patients LL29 (AnHa) (ATCC) and LL97A (ALMy) (ATCC) were maintained in DMEM F12 (Gibco 10565) supplemented with 15% fetal bovine serum (FBS) (Gibco 10437-028) plus Pen-Strep (1%) (Gibco 15140-122). Cells were split every 3 to 4 days at 1:2/1:3 dilution each time. The day before the experiment, cells were trypsinized using Trypsin-EDTA (0.05%) (Gibco 25300-054) and plated on 24-well […] at 1×10^5 cells per well.
Compounds II-3 and I-1 were first solubilized in 100% DMSO as 50 mM solution, and then diluted 1 to 200 in 1% BSA as a 10× stock solution of […], and series stock dilution (1 to 2 dilution) were carried out as needed. […] The total RNA was harvested, and the relative mRNA expression levels were assessed via RT-PCR with HPRT as the internal control. […] Significance was determined by student's t-test in comparison to control.
Conditioned media were collected at the end of the experiment. The levels of Matrix Metalloproteinase 2 (MMP-2) (R&D System MMP200) and human Tissue Inhibitor of Metalloproteinase 2 (TIMP-2) (R&D System DTM200) were measured according to the manufacturer's instruction. […] The ELISA was measured on a Victor×5 multilabel plate reader (PerkinElmer) at an absorbance of 450 nm with background correction at 550 nm. […]

LC3-II/LC3-I = assay: LC3 immunoblotting in HT-29 cells (autophagy); format: cell-based; details: 24 hours
Protocol: The test compound was first solubilized in 100% DMSO as a 50 mM solution, and then diluted 1 to 100 in FBS as a 10× stock solution of 500 μM.
Huh-7 cells were seeded in 10% FBS DMEM overnight. The cells media were replaced with drug diluted 1 to 10 in DMEM (final concentration 50 μm in 10% FBS DMEM). Four hours after the drug addition, cells were lysed in RIPA buffer. Cell lysates were analyzed by immunoblotting with anti-LC3A/B antibodies (Cell signaling 12741). Data were presented as LC3-II/LC3-I ratio compared to vehicle treated samples.
As noted in Levine and Kroemer (2008) CELL, 132, p. […] The same incubation experiment was carried out in HT-29 cells with compound II-3. […] FIG. 2E summarizes the results when HT-29 cells were incubated with 50 μM of compounds IV-11 and IV-12.
This same synergy experiment was repeated with compound II-3 using HT-29 cells. In this experiment, HT-29 cells were incubated for 24 hours with each of the following treatment groups: 1) vehicle control group; 2) cystamine (25 μM); 3) DHA (25 μM); 4) a combination of cystamine (25 μM) and DHA; 5) cystamine (250 μM); 6) DHA (250 μM); 7) a combination of cystamine (250 μM) and DHA (250 μM); 8) compound II-3 (25 μM). The result shown represented the average of three separate measurements. […] This degree of activation of autophagy was not achieved with any of the following treatment groups: 1) vehicle control group; 2) cystamine (25 μM); 3) DHA (25 μM); 4) a combination of cystamine (25 μM) and DHA; 5) cystamine (250 μM); 6) DHA (250 μM); 7) a combination of cystamine (250 μM) and DHA (250 μM).

[2] = Oral cannulated rat PK study (portal and jugular vein); format: in vivo, Sprague Dawley rats; details: for AUC(0-t) / Cmax: Sprague Dawley
From the text: The compounds of the invention were solubilized in a mixture of excipients consisting 40% Tween, 50% Peceol, 10% PEG400 and diluted with water to form a self-emulsifying aqueous mixture for oral administration to animals. For this study, Sprague Dawley rats that have been surgically implanted with indwelling jugular vein cannula (JVC) and portal vein cannula (PVC) were used (Agilux, Worcester, Mass.). This approach using double-cannulated rats allowed the measurement of the drug concentration that was delivered in the portal vein as well as the drug concentration that was present in the peripheral. For the PK study, serial blood collection was carried out at both the portal and jugular vein at the following time points: 10, 20, 40 min and 1, 2, 4 and 6 hours post dose. The bioanalytical portion of the PK study was carried out using an LC/MS/MS system (Agilent Model No: HPLC: 1200, MS: 6410) and analyzed with the appropriate software (WinNonlin Phoenix 64 6.3.0 395).

CC/C=C\C/C=C\C/C=C\C/C=C\C/C=C\C/C=C\CCC(=O)NCCSSC(C)(C)CNC(=O)c1cccnc1 [II-3, N-(2-((2-((4Z,7Z,10Z,13Z,16Z,19Z)-docosa-4,7,10,13,16,19-hexaenamido)ethyl)disulfanyl)-2-methylpropyl)nicotinamide]
TIMP-2 level in conditioned media [1]: marked reduction | activation of autophagy (ratio of LC3-II to LC3-I) (LC3-II/LC3-I; HT-29, 25 μM): synergistic and higher degree of activation of autophagy | ratio of LC3-II to LC3-I compared to vehicle control (LC3-II/LC3-I; HT-29 cells, 50 μM): increase | AUC(0-t) ([2]; jugular vein blood (peripheral), rat, oral, systemic circulation (jugular vein), read-out: peripheral AUClast): 300 ± 103 ng·h/mL | Cmax ([2]; jugular vein blood (peripheral), rat, oral, systemic circulation (jugular vein), read-out: peripheral Cmax): 102 ± 16.9 ng/mL | AUC(0-t) ([2]; portal vein blood, rat, oral, portal vein, read-out: portal AUClast): 679 ± 226 ng·h/mL | Cmax ([2]; portal vein blood, rat, oral, portal vein, read-out: portal Cmax): 331 ± 120 ng/mL | increase in the AUC, II-3 vs II-2 ([2]; dosed orally to rats, Example 23): 100 fold | peripheral Cmax of parent II-3 relative to parent II-2 ([2]; rat, oral): 100 fold | resistance to first pass metabolism ([2]; rat, oral): more resistant | peripheral AUClast ([2]; rat, oral, as restated in Example 23): 102 ng·h/mL | oral exposure in the rat compared with II-2 ([2]; summary of Example 18): better oral exposure
